Experimental data from patent publication US20260207654A1, “HEPARAN SULFATE AND ITS MIMETICS AS CHEMOKINE INHIBITORS” (INDIAN INSTITUTE OF SCIENCE EDUCATION AND RESEARCH, priority 2021, published 2026).

Legend:
Test in all cases: Chemokine glycan microarray binding assay
Details in all cases: maximum RFU set as 100% binding, average across 2 glycan concentrations and 3 chemokine dilutions (n=6)
[1] = molecular target: CCL2 (Homo sapiens, UniProt P13500)
Description: (§1) Microarray Studies: The compounds of the present invention were covalently immobilized on epoxy group collated glass slides. Slides were rehydrated with dH2O and incubated for 30 min in a staining dish with 50° C. prewarmed ethanolamine (0.05 M) in Tris-HCl (0.1 M, pH 9.0) to block the remaining reactive epoxy groups on the slide surface, then washed with 50° C. prewarmed dH2O. Slides were centrifuged at 200 g for 3 min, then fitted with the ProPlate Multi-Array 16-well slide module (Grace Bio-lab P37001) to divide into the subarrays (blocks). Slides were washed with PBST (0.1% Tween 20), aspirated, and blocked with 200 μL/subarray of blocking buffer (PBS pH 7.3+1% w/v ovalbumin) for 1 h at RT with gentle shaking. Next, the blocking solution was aspirated and 100 μL/block of primary chemokines diluted in PBS pH 7.3+1% w/v ovalbumin were incubated with gentle shaking for 2 hours at RT. Slides were washed 4 times with PBST, then with PBS (without Tween-20) for 2 min. Bound antibodies were detected by incubating with biotinylated secondary detections (1 ng/μL) diluted in PBS, 200 μL/block at RT for 1 h. Slides were washed 4 times with PBST, then with PBS (without Tween-20) for 2 min and biotinylated antibodies were detected with Cy3-SA ([…]). Slides were washed 4 times with PBST, then with PBS for 10 min followed by removal from the ProPlate Multi-Array slide module and immediately dipping in a staining dish with dH2O for 10 min with shaking. The slides were then centrifuged at 200 g for 3 min, and the dry slides immediately scanned. Binding was tested at three serial dilutions, then detected with the relevant biotinylated secondary antibody (1 μg/mL) followed by Cy3-strepavidin (1.5 μg/mL). Arrays were scanned and RFUs were calculated of chemokines binding to 100 μM glycans printed at four replicates. Rank binding of chemokines (each at three dilutions) to glycans printed at four replicates each was calculated and summarized in Table 1. For each binding assay per printed block, the maximum RFU was determined and set as 100% binding. Then, binding to all other glycans in the same block was ranked in comparison to the maximal binding, and average rank binding (and SEM) for each glycan across the three examined concentrations of each chemokine was calculated. This analysis allowed to compare the glycan-binding profiles of the different chemokines and dissect their binding preferences.
(§2) Table 1. Chemokine glycan microarray binding assay. Binding was tested at 3 serial dilutions, then detected with the relevant biotinylated secondary antibody (1 μg/ml) followed by Cy3-Strepavidin (1.5 μg/ml) (Table SX). Arrays were scanned, relative fluorescent units (RFU) obtained, and maximum RFU determined and set as 100% binding. Then rank binding (per printed glycan per concentration, per each chemokine dilution, per printed block) was determined. Since each glycans was printed at 2 concentration, 100% binding was set separately for each concentration. Then, binding to all the other glycans at the same concentration was ranked in comparison to the maximal binding, and the average rank binding and SEM for each glycan across the two glycan concentrations and three examined dilutions of each chemokine was calculated (n=6, 2 glycan concentrations across 3 chemokine dilutions). This analysis allowed to compare the glycan binding profiles of the different chemokines and dissect their binding preferences. The mean rank is shown as a heatmap of all the examined binding assays together (red highest, blue lowest and white 50th percentile of ranking).

[2] = molecular target: T1, CCL21 (Homo sapiens, UniProt O00585)
T1 sequence (O00585 24-134): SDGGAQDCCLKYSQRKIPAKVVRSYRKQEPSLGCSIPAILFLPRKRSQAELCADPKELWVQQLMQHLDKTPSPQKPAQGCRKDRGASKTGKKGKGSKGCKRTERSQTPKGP
Description: as §1, §2

[3] = molecular target: CCL7 (Homo sapiens, UniProt P80098)
CCL7, sequence (P80098 24-99, species assumed): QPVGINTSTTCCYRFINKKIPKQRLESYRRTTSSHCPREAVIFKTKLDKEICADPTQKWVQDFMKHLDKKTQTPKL
Description: as §1, §2

[4] = molecular target: T2, CXCL8 (Homo sapiens, UniProt P10145)
T2 sequence (P10145 21-99): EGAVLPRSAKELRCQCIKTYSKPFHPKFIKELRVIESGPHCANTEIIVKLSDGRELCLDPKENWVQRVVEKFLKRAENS
Description: as §1, §2

[5] = molecular target: T3, CCL5 (Homo sapiens, UniProt P13501)
T3 sequence (P13501 24-91): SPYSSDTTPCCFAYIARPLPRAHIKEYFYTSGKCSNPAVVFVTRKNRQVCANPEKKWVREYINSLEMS
Description: as §1, §2

[6] = molecular target: T4, CCL28 (Homo sapiens, UniProt Q9NRJ3)
T4 sequence (Q9NRJ3 20-127): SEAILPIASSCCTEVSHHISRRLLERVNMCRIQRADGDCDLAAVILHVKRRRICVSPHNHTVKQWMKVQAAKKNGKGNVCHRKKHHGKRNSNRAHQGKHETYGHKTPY
Description: as §1, §2

[7] = molecular target: T5, CXCL10 (Homo sapiens, UniProt P02778)
T5 sequence (P02778 22-98): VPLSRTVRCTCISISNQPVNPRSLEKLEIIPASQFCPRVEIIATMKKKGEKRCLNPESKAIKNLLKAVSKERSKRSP
Description: as §1, §2

[8] = molecular target: CCL13 (Homo sapiens, UniProt Q99616)
CCL13, sequence (Q99616 17-98, species assumed): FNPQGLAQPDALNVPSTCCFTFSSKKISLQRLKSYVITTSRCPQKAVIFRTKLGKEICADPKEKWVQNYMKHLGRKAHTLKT
Description: as §1, §2

[9] = molecular target: CXCL12 (Homo sapiens, UniProt P48061)
CXCL12, sequence (P48061 22-93, species assumed): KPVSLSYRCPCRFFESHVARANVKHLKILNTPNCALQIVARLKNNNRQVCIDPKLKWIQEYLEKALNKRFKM
Description: as §1, §2

CCL2, sequence (P13500 24-99, species assumed): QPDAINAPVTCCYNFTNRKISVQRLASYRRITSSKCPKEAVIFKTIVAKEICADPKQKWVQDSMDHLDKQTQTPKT

Compound	mean rank binding to CCL2 [1] [%]	mean rank binding to CCL21 [2] [%]	mean rank binding to CCL7 [3] [%]	mean rank binding to CXCL8 [4] [%]	mean rank binding to CCL5 [5] [%]	mean rank binding to CCL28 [6] [%]	mean rank binding to CXCL10 [7] [%]	mean rank binding to CCL13 [8] [%]	mean rank binding to CXCL12 [9] [%]
CC(=O)N[C@H]1[C@@H](O[C@H]2[C@H](O)[C@@H](O)[C@H](OCCCN)O[C@H]2C(=O)O)O[C@H](COP(=O)(O)O)[C@@H](O[C@@H]2O[C@@H](C(=O)O)[C@@H](O[C@H]3O[C@H](COP(=O)(O)O)[C@@H](O)[C@H](O)[C@H]3NC(C)=O)[C@H](O)[C@H]2O)[C@@H]1O [Example 26]	1	81	40	10	5	39	48	70	75
CC(=O)NC1C(O)[C@H](O)C(COS(=O)(=O)O)O[C@@H]1O[C@@H]1C(C(=O)O)O[C@@H](O[C@@H]2C(COS(=O)(=O)O)O[C@H](O[C@@H]3C(C(=O)O)O[C@@H](OCCCN)C(OS(=O)(=O)O)C3O)C(NC(C)=O)C2O)C(OS(=O)(=O)O)C1O (stereo partly drawn) [Example 20, 3-Aminopropyl-O-[(2-acetamido-6-O-sulfonato-2-deoxy-α-D-glucopyranosyl)-(1→4)-O-(2-O-sulfonato-α-L-idopyranosyluronate)-(1→4)-O-(2-acetamido-6-O-sulfonato-2-deoxy-α-D-glucopyranosyl)]-(1→4)-O-2-O-sulfonato-α-L-idopyranosiduronate]	30	71	86	53	54	66	64	79	69
NCCCO[C@@H]1OC(C(=O)O)[C@@H](O[C@H]2OC(CO)[C@@H](O[C@@H]3OC(C(=O)O)[C@@H](O[C@H]4OC(CO)[C@@H](O)C(O)C4N)C(O)C3O)C(O)C2N)C(O)C1O (stereo partly drawn) [Example 15, 3-Aminopropyl-O-[(2-amino-2-deoxy-α-D-glucopyranosyl)-(1→4)-O-(α-L-idopyranosyluronate)-(1→4)-O-(2-amino-2-deoxy-α-D-glucopyranosyl)]-(1→4)-O-α-L-idopyranosiduronate]	3	62	45	13	3	36	39	64	51
NCCOCCO[C@@H]1O[C@@H](C(=O)O)[C@@H](O[C@@H]2O[C@@H](C(=O)O)[C@@H](OS(=O)(=O)O)[C@H](O)[C@H]2O)[C@H](O)[C@H]1O [Example 5, Ethoxy-2-aminoethoxyl-O-((4-O-sulfonato)-α-L-idopyranosyl Uronic Acid-α(1→4))-α-L-idopyranoside Uronic Acid]	23	62	58	62	15	80	57	81	64
NCCOCCO[C@@H]1O[C@@H](C(=O)O)[C@@H](OS(=O)(=O)O)[C@H](O)[C@H]1OS(=O)(=O)O [Example 3, Ethoxy-2-aminoethoxyl-O-(2,4-O-disulfonato)-α-L-idopyranoside Uronic Acid]	0	46	17	5	1	72	24	69	38
NCCCO[C@@H]1O[C@@H](C(=O)O)[C@@H](O[C@H]2O[C@H](CO)[C@@H](O[C@@H]3O[C@@H](C(=O)O)[C@@H](O[C@H]4O[C@H](CO)[C@@H](O)[C@H](OS(=O)(=O)O)[C@H]4N)[C@H](O)[C@H]3OS(=O)(=O)O)[C@H](OS(=O)(=O)O)[C@H]2N)[C@H](O)[C@H]1OS(=O)(=O)O [Example 18, 3-Aminopropyl-O-[(2-amino-3-O-sulfonato-2-deoxy-α-D-glucopyranosyl)-(1→4)-O-(2-O-sulfonato-α-L-idopyranosyluronate)-(1→4)-O-(2-amino-3-O-sulfonato-2-deoxy-α-D-glucopyranosyl)]-(1→4)-O-2-O-sulfonato-α-L-idopyranosiduronate]	1	48	35	9	4	66	27	64	45
NCCCO[C@@H]1O[C@@H](C(=O)O)[C@@H](O[C@H]2O[C@H](CO)[C@@H](O[C@@H]3O[C@@H](C(=O)O)[C@@H](O[C@H]4O[C@H](CO)[C@@H](O)[C@H](OS(=O)(=O)O)[C@H]4N)[C@H](O)[C@H]3O)[C@H](OS(=O)(=O)O)[C@H]2N)[C@H](O)[C@H]1O [Example 22, 3-Aminopropyl-O-[(2-amino-3-O-sulfonato-2-deoxy-α-D-glucopyranosyl)-(1→4)-O-(α-L-idopyranosyluronate)-(1→4)-O-(2-amino-3-O-sulfonato-2-deoxy-α-D-glucopyranosyl)]-(1→4)-O-α-L-idopyranosiduronate]	28	83	78	51	20	62	65	58	84
CC(=O)NC1C(O)[C@H](O)C(COS(=O)(=O)O)O[C@@H]1O[C@@H]1C(C(=O)O)O[C@@H](O[C@@H]2C(COS(=O)(=O)O)O[C@H](O[C@@H]3C(C(=O)O)O[C@@H](OCCCN)C(O)C3O)C(NC(C)=O)C2O)C(O)C1O (stereo partly drawn) [Example 24, 3-Aminopropyl-O-[(2-acetamido-6-O-sulfonato-2-deoxy-α-D-glucopyranosyl)-(1→4)-O-(α-L-idopyranosyluronate)-(1→4)-O-(2-acetamido-6-O-sulfonato-2-deoxy-α-D-glucopyranosyl)]-(1→4)-O-α-L-idopyranosiduronate]	13	79	73	19	24	79	41	81	66
